Laboratory results: patent publication US11084814B2, “Pyrido[3, 4-d]pyrimidine derivative and pharmaceutically acceptable salt thereof” (Teijin Pharma Limited, priority 2016, dated 2021)

How the values were obtained:
CDK4/cyclin D3 = target: T1, CDK4/cyclin D3 (Homo sapiens, UniProt P11802); experiment: Human CDK4/cyclin D3 inhibitory activity (QS S Assist CDK4/Cyclin D3_FP Kit, IMAP fluorescent polarization); type: biochemical; details: read-out: CDK4 Activity symbol
T1 construct: purchased Carna Biosciences, Inc. QS S Assist CDK4/Cyclin D3_FP Kit
Procedure: Human CDK4/Cyclin D3 Inhibitory Activity
(§1) Each compound was analyzed for CDK4/cyclin D3 inhibitory activity with an assay kit (QS S Assist CDK4/Cyclin D3_FP Kit, available from Carna Biosciences, Inc.). This assay kit determines kinase activity on the basis of the IMAP technology by Molecular Devices. Specifically, the kinase activity is determined through quantification of a variation in fluorescent polarization caused by binding of a kinase-phosphorylated fluorescent substance to an IMAP-binding reagent.
Each solution was prepared with the 10× assay buffer attached to the kit or a separately prepared assay buffer having the same composition as the assay buffer attached to the kit. An assay buffer was prepared by 10-fold dilution of the 10× assay buffer with distilled water. The assay buffer contains 20 mM HEPES (pH 7.4), 0.01% Tween20, and 2 mM dithiothreitol. A test compound solution was prepared by dilution of the test compound with dimethyl sulfoxide (DMSO) to a concentration 100 times higher than the final concentration and then 25-fold dilution with the assay buffer to a concentration four times higher than the final concentration. An ATP/substrate/Metal solution was prepared by five-fold dilution of the 5×ATP/substrate/Metal solution attached to the kit with the assay buffer. An enzyme solution was prepared by dilution of the CDK4/cyclin D3 attached to the kit with the assay buffer to a concentration twice higher than the final concentration (final concentration of CDK4/cyclin D3: 12.5 to 25 ng/well). A detection reagent was prepared by five-fold dilution of each of 5×IMAP-binding buffer A and 5×IMAP-binding buffer B with distilled water, mixing of IMAP-binding buffer A with IMAP-binding buffer B at a ratio of 85:15, and 400-fold dilution of the IMAP-binding reagent with the mixed buffer.
(§2) The test compound solution (5 μL/well) and the ATP/substrate/Metal solution (5 μL/well) were added to a 384-well plate, and the enzyme solution or the assay buffer (10 μL/well) was added to the plate (total amount of the reaction mixture: 20 μL/well) for initiation of enzymatic reaction. […] The reaction was performed at room temperature for 45 minutes, and the detection reagent (60 μL/well) was then added to the plate, followed by further reaction for 30 minutes at room temperature under light shielding conditions. Subsequently, fluorescent polarization was determined with a microplate reader at an excitation wavelength of 485 nm and an emission wavelength of 535 nm.
(§3) The percent inhibition of enzyme activity was calculated for each test compound (note: enzyme activity=100% in the case of addition of the enzyme solution and addition of DMSO instead of the test compound solution, whereas enzyme activity […] in the case of addition of the assay buffer instead of the enzyme solution, and addition of DMSO instead of the test compound solution). The percent inhibition of enzyme activity was fitted to a dose-response curve, to determine a 50% inhibitory concentration against CDK4/cyclin D3.
In each table, “+++” corresponds to IC50<10 nM. “++” 10 nM […] IC50<100 nM, and “+” 100 nM≤IC50.

CDK2/cyclin A2 = target: T2, CDK2/cyclin A2 (Homo sapiens, UniProt P24941); experiment: Human CDK2/cyclin A2 inhibitory activity (QS S Assist CDK2/Cyclin A2_FP Kit, IMAP fluorescent polarization); type: biochemical; details: read-out: CDK2 Activity symbol
T2 construct: purchased Carna Biosciences, Inc. QS S Assist CDK2/Cyclin A2_FP Kit
Procedure: Human CDK2/Cyclin A2 Inhibitory Activity
as §1, with “CDK2/cyclin A2” for “CDK4/cyclin D3”, “CDK2/Cyclin A2_FP” for “CDK4/Cyclin D3_FP”
An assay buffer was prepared by 10-fold dilution of the 10× assay buffer attached to the kit with distilled water, and each solution was prepared with the assay buffer. The assay buffer contained 20 mM HEPES (pH 7.4), 0.01% Tween 20, and 2 mM dithiothreitol. A test compound solution was prepared by dilution of the test compound with dimethyl sulfoxide (DMSO) to a concentration 100 times higher than the final concentration and then 25-fold dilution with the assay buffer to a concentration four times higher than the final concentration. An ATP/substrate/Metal solution was prepared by five-fold dilution of the 5×ATP/substrate/Metal solution attached to the kit with the assay buffer. An enzyme solution was prepared by dilution of the CDK2/cyclin A2 attached to the kit with the assay buffer to a concentration twice higher than the final concentration (final concentration of CDK2/cyclin A2: 2.5 ng/well). A detection reagent was prepared by five-fold dilution of 5×IMAP-binding buffer A with distilled water and 400-fold dilution of the IMAP-binding reagent with the diluted buffer.
as §2, with “60” for “45”
as §3, with “enzyme solution” for “enzyme solution,”, “against CDK2/cyclin A2.” for “against CDK4/cyclin D3.”
In each table, “+++” corresponds to IC50<10 nM, “++” 10 nM≤IC50<100 nM, and “+” 100 nM≤IC50.

T1 sequence (P11802 whole entry): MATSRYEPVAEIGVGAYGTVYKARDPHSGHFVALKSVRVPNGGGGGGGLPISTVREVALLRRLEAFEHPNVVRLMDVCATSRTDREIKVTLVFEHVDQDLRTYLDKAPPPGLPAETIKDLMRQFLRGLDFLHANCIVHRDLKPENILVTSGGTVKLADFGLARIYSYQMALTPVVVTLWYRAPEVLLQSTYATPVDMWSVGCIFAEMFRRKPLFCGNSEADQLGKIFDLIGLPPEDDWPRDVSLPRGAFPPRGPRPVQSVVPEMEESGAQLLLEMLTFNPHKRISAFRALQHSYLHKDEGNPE
T1 sequence (P30281 whole entry partner): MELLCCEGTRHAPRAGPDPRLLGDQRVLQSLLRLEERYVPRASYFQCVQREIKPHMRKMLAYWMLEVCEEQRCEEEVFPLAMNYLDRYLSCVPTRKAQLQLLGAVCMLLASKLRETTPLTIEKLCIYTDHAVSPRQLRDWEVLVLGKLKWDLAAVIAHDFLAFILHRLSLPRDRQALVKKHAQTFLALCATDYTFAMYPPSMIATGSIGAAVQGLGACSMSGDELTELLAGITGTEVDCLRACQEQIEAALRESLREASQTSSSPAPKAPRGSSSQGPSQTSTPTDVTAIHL

Row | Compound | IC50 (CDK4/cyclin D3) [nM] | IC50 (CDK2/cyclin A2) [nM]
1 | Cc1nc(Nc2ncc3cc([C@@H](C)O)nc(N4CCCC4)c3n2)ccc1N1CCNCC1 [Compound 86] | < 10 | ≥ 100
2 | Cc1nc(Nc2ncc3cc([C@@H](C)O)nc(N4CCCCC4)c3n2)ccc1N1CCNCC1 [Compound 87] | < 10 | ≥ 100
3 | Cc1nc(Nc2ncc3cc([C@@H](C)O)nc(N4CCCCC4)c3n2)ccc1N1CCN(CCO)CC1 [Compound 88] | < 10 | ≥ 100
4 | C[C@@H](O)c1cc2cnc(Nc3ccc(N4CCNCCC4=O)cn3)nc2c(N2CCCCC2)n1 [Compound 89] | < 10 | ≥ 100
5 | C[C@@H](O)c1cc2cnc(Nc3ccc(N4CCNCC4=O)cn3)nc2c(N2CCC(F)CC2)n1 [Compound 90] | < 10 | ≥ 100
6 | C[C@@H](O)c1cc2cnc(Nc3ccc(N4CCNCC4)nn3)nc2c(N2CCCCC2)n1 [Compound 91] | < 10 | ≥ 100
7 | OCCc1cc2cnc(Nc3ccc(CN4CCNCC4)cn3)nc2c(N2CCCCC2)n1 [Compound 92] | < 10 | ≥ 100
8 | O=C1CNCCN1c1ccc(Nc2ncc3cc(CCO)nc(N4CCCCC4)c3n2)nc1 [Compound 93] | < 10 | ≥ 100
9 | OCCc1cc2cnc(Nc3ccc(N4CCNCC4)nn3)nc2c(N2CCCCC2)n1 [Compound 94] | < 10 | ≥ 100
10 | OCCc1cc2cnc(Nc3ccc4c(n3)CCNC4)nc2c(N2CCCCC2)n1 [Compound 95] | 10 to 100 | ≥ 100
11 | OCCN1CCN(Cc2ccc(Nc3ncc4cc(CO)nc(N5CCCCC5)c4n3)nc2)CC1 [Compound 96] | < 10 | ≥ 100
12 | O=C1CNCCN1c1ccc(Nc2ncc3cc(CO)nc(N4CCCCC4)c3n2)nc1 [Compound 97] | < 10 | ≥ 100
13 | C[C@@H](O)c1cc2cnc(Nc3ccc(CN4CCN(CCO)CC4)cn3)nc2c(N2CCC[C@@H]2C)n1 [Compound 98] | 10 to 100 | ≥ 100
14 | C[C@H]1CCN(c2nc([C@@H](C)O)cc3cnc(Nc4ccc(CN5CCN(CCO)CC5)cn4)nc23)C1 [Compound 99] | < 10 | ≥ 100
15 | C[C@@H]1CCN(c2nc([C@@H](C)O)cc3cnc(Nc4ccc(CN5CCN(CCO)CC5)cn4)nc23)C1 [Compound 100] | < 10 | ≥ 100
16 | CC1CCC(C)N1c1nc([C@@H](C)O)cc2cnc(Nc3ccc(CN4CCN(CCO)CC4)cn3)nc12 (some centres unmarked) [Compound 101] | < 10 | ≥ 100
17 | C[C@@H](O)c1cc2cnc(Nc3ccc(CN4CCN(CCO)CC4)cn3)nc2c(N2CCC(C)(C)C2)n1 [Compound 102] | < 10 | ≥ 100
18 | C[C@@H](O)c1cc2cnc(Nc3ccc(CN4CCN(CCO)CC4)cn3)nc2c(N2C3CCC2CC3)n1 [Compound 103] | < 10 | ≥ 100
19 | C[C@@H](O)c1cc2cnc(Nc3ccc(CN4CCN(CCO)CC4)cn3)nc2c(N2CC3CC3C2)n1 (some centres unmarked) [Compound 104] | < 10 | ≥ 100

Row | Compound | IC50 (CDK4/cyclin D3) [nM] | IC50 (CDK2/cyclin A2) [nM]
20 | CC(O)c1cc2cnc(Nc3ccc(CN4CCN(CCO)CC4)cn3)nc2c(N2C3CCCC2CC3)n1 (centres unmarked) [Compound 105] | < 10 | ≥ 100
21 | C[C@@H](O)c1cc2cnc(Nc3ccc(CN4CCN(CCO)CC4)cn3)nc2c(N2CCC(O)CC2)n1 [Compound 106] | < 10 | ≥ 100
22 | OCc1cc2cnc(Nc3ccc(N4CCNCC4)nn3)nc2c(N2CCCCC2)n1 [Compound 107] | < 10 | ≥ 100
23 | OCc1cc2cnc(Nc3ccc(CN4CCNCC4)cn3)nc2c(N2CCCCC2)n1 [Compound 108] | < 10 | ≥ 100
24 | OCCc1cc2cnc(Nc3ccc4c(n3)CCN(CCO)C4)nc2c(N2CCCCC2)n1 [Compound 109] | < 10 | ≥ 100
25 | CN(C)CCN1CCc2nc(Nc3ncc4cc(CCO)nc(N5CCCCC5)c4n3)ccc2C1 [Compound 110] | < 10 | ≥ 100
26 | C[C@@H](O)c1cc2cnc(Nc3ccc4c(n3)CCN(CCO)C4)nc2c(N2CCCCC2)n1 [Compound 111] | < 10 | ≥ 100
27 | C[C@@H](O)c1cc2cnc(Nc3ccc4c(n3)CCN(CCO)C4)nc2c(N2CCC(F)CC2)n1 [Compound 112] | < 10 | ≥ 100
28 | CC(O)c1cc2cnc(Nc3ccc(CN4CCN(CCO)CC4)cn3)nc2c(N2CC(C)C(C)C2)n1 (centres unmarked) [Compound 113] | < 10 | ≥ 100
29 | C[C@@H](O)c1cc2cnc(Nc3ccc(N4CCN(CCS(C)(=O)=O)CC4)nn3)nc2c(N2CCCCC2)n1 [Compound 114, (R)-1-(2-((6-(4-(2-(methylsulfonyl)ethyl)piperazin-1-yl)pyridazin-3-yl)amino)-8-(piperidin-1-yl)pyrido[3,4-d]pyrimidin-6-yl)ethanol] | < 10 | ≥ 100
30 | C[C@@H](O)c1cc2cnc(Nc3ccc(CN4CCN(C)CC4)cn3)nc2c(N2CCC(F)CC2)n1 [Compound 115] | < 10 | ≥ 100
31 | C[C@@H](O)c1cc2cnc(Nc3ccc(CN4CCN(C)CC4)cn3)nc2c(N2CC[C@@H](F)C2)n1 [Compound 116] | < 10 | ≥ 100
32 | C[C@@H](O)c1cc2cnc(Nc3ccc(CN4CCN(C)CC4)cn3)nc2c(N2CC[C@H](F)C2)n1 [Compound 117] | < 10 | ≥ 100
33 | CO[C@H](C)c1cc2cnc(Nc3ccc(N4CCNCC4)nn3)nc2c(N2CCCCC2)n1 [Compound 118] | < 10 | ≥ 100
34 | CO[C@H](C)c1cc2cnc(Nc3ccc(CN4CCNCC4)cn3)nc2c(N2CCCCC2)n1 [Compound 119] | < 10 | ≥ 100
35 | C[C@@H](O)c1cc2cnc(Nc3ccc(N4CCN(C)CCC4=O)cn3)nc2c(N2CCCC2)n1 [Compound 120] | < 10 | ≥ 100
36 | C[C@@H](O)c1cc2cnc(Nc3ccc(N4CCN(C)CCC4=O)cn3)nc2c(N2CCCCC2)n1 [Compound 121] | < 10 | ≥ 100
37 | CCN1CCN(Cc2ccc(Nc3ncc4cc([C@@H](C)O)nc(N5CCCCC5)c4n3)nc2)CC1 [Compound 122] | < 10 | ≥ 100
